Measured values: PubChem BioAssay (NCI)
Several values for one entry are separate records, joined by “and”; a condition that tells them apart may be missing. Equal values may be shown once.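 In this assay, cells in 96-well plates receive the compound at five concentrations for 48 hours. Endpoints are linearly interpolated between the surrounding concentrations. Here, GI50 denotes the concentration required for 50% inhibition of growth. The concentration for full growth arrest is given as TGI.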

How the values were obtained:
Experiment in all cases: inhibition of tumour cell growth, NCI panel, 48 h
[1] = tested on: UACC-62 melanoma
[2] = tested on: NCI-H23 lung
[3] = tested on: MCF7 breast
[4] = tested on: A549 NSCLC
[5] = tested on: MALME-3M melanoma
[6] = tested on: CAKI-1 renal
[7] = tested on: CCRF-CEM leukemia
[8] = tested on: SK-OV-3 ovarian
[9] = tested on: SR leukemia
[10] = tested on: HOP-92 NSCLC

For CC(C)(C)OC[C@H](O)CC#N, the TGI [1] was > 100 µM, the TGI [2] was > 100 µM and the TGI [3] was > 100 µM. The TGI [4] was > 100 µM, the TGI [5] was > 100 µM and the TGI [6] was > 100 µM. The TGI [7] was > 100 µM, the TGI [8] was > 100 µM and the TGI [9] was > 100 µM.

O=C1CC(=O)OC(c2ccc([N+](=O)[O-])cc2)O1 showed a GI50 [1] of 2.14 µM, a TGI [1] of 5.54 µM and a GI50 [2] of 2.15 µM. It also gave a TGI [2] of 5.2 µM, a GI50 [3] of 1.59 µM and a TGI [3] of 3.84 µM. It also gave a GI50 [4] of 2.6 µM, a TGI [4] of 7.78 µM and a GI50 [5] of 2.28 µM. It also gave a TGI [5] of 7.02 µM, a GI50 [6] of 1.44 µM and a TGI [6] of 3.24 µM. It also gave a GI50 [7] of 2.45 µM, a TGI [7] of 8.79 µM and a GI50 [10] of 0.23 µM. For the same compound, the TGI [10] was 3.71 µM, the GI50 [8] was 7.05 µM and the TGI [8] was 19.2 µM. For the same compound, the GI50 [9] was 2.62 µM and the TGI [9] was 9.09 µM.

O=C1NC2(CN3CCC2CC3)C(=O)N1CN(Cc1ccccc1)c1ccccc1 (stereo not given) was tested, and the TGI [1] was > 100 µM, the TGI [2] was > 100 µM and the TGI [3] was > 100 µM. The TGI [4] was > 100 µM, the TGI [6] was > 100 µM and the TGI [10] was > 100 µM. The TGI [8] was > 100 µM and the TGI [9] was 63.2 µM.

With COC(=O)CCCCCN=Cc1c(O)c(O)c(C(C)C)c2cc(C)c(-c3c(C)cc4c(C(C)C)c(O)c(O)c(C=NCCCCCC(=O)OC)c4c3O)c(O)c12 the GI50 [2] was 1.32 µM, the TGI [2] was > 32.5 µM and the GI50 [3] was 1.04 µM. For the same compound, the TGI [3] was 5.83 µM, the GI50 [4] was 1.35 µM and the TGI [4] was > 32.5 µM. For the same compound, the GI50 [5] was 2.45 µM, the TGI [5] was > 32.5 µM and the GI50 [6] was 6.17 µM. For the same compound, the TGI [6] was > 32.5 µM, the GI50 [7] was 0.946 µM and the TGI [7] was 11.1 µM. It also gave a GI50 [10] of 0.797 µM, a TGI [10] of 2.88 µM and a GI50 [8] of 1.51 µM. It also gave a TGI [8] of 20 µM, a GI50 [9] of 1.09 µM and a TGI [9] of 9.61 µM.

For O=C(O)CSc1ncccc1[N+](=O)[O-], the TGI [1] was > 100 µM, the TGI [2] was > 100 µM and the TGI [3] was > 100 µM. For the same compound, the TGI [4] was > 100 µM, the TGI [5] was > 100 µM and the TGI [6] was > 100 µM. For the same compound, the TGI [7] was > 100 µM, the TGI [10] was > 100 µM and the TGI [8] was > 100 µM. The TGI [9] was > 100 µM.

For CCN(CC)CCNc1n[n+]([O-])c2ccccc2[n+]1[O-], the TGI [1] was 22.2 µM and 21.2 µM, the GI50 [2] was 4.31 µM and 9.76 µM and the TGI [2] was 19 µM and 33.7 µM. For the same compound, the GI50 [3] was 5.43 µM and 2.55 µM, the TGI [3] was 37.6 µM and 26.2 µM and the GI50 [4] was 5.07 µM and 10.2 µM. For the same compound, the TGI [4] was 22.3 µM and 29.6 µM, the TGI [5] was 20.7 µM and 20.8 µM and the GI50 [6] was 2.89 µM and 6.81 µM. For the same compound, the TGI [7] was 13.7 µM and 30.6 µM, the GI50 [10] was 2.28 µM and 7.45 µM and the TGI [10] was > 21.8 µM and 46.6 µM. The TGI [8] was 32.4 µM, the GI50 [9] was 2.92 µM and 6.7 µM and the TGI [9] was 6.87 µM and 28.7 µM.

With Cn1c(=O)c2c(ncn2CN2CCN(Cn3cnc4c3c(=O)n(C)c(=O)n4C)CC2)n(C)c1=O the TGI [1] was > 100 µM, the TGI [2] was > 100 µM and the TGI [3] was 35.7 µM. The TGI [4] was > 100 µM, the TGI [5] was > 100 µM and the TGI [6] was > 100 µM. The TGI [7] was 39.5 µM, the TGI [10] was > 100 µM and the TGI [8] was > 100 µM. For the same compound, the TGI [9] was > 100 µM.

Cn1cc(CNCC2CCN(c3ncc(C(=O)NO)cn3)CC2)c2ccccc21 gave a GI50 [1] of 0.0118 µM, a TGI [1] of 0.0415 µM and a GI50 [2] of 0.0218 µM. For the same compound, the TGI [2] was 0.436 µM, the GI50 [3] was < 0.01 µM and the TGI [3] was 2.53 µM. The GI50 [4] was 0.0123 µM, the TGI [4] was 0.519 µM and the GI50 [5] was < 0.01 µM. The TGI [5] was 15.2 µM, the GI50 [6] was 0.0233 µM and the TGI [6] was 0.169 µM. The GI50 [7] was < 0.0116 µM, the TGI [7] was 49.3 µM and the GI50 [10] was < 0.0107 µM. The TGI [10] was 0.0399 µM, the GI50 [8] was 0.0199 µM and the TGI [8] was 0.361 µM. For the same compound, the GI50 [9] was < 0.0124 µM and the TGI [9] was > 53.9 µM.

COC1CC(OC(=O)c2ccccc2)C(OC(=O)c2ccccc2)C(C)O1 (stereo not given) was tested, and the TGI [1] was > 100 µM, the TGI [2] was > 100 µM and the TGI [3] was > 100 µM. For the same compound, the TGI [4] was > 100 µM, the TGI [5] was > 100 µM and the TGI [6] was > 100 µM. For the same compound, the TGI [7] was > 100 µM, the TGI [10] was > 100 µM and the TGI [8] was > 100 µM. For the same compound, the TGI [9] was > 100 µM.

COc1ccc(-c2cn[nH]c2-c2cc(OC)c3c(c2)OCCO3)cc1 gave a GI50 [1] of 0.0758 µM, a TGI [1] of 17.6 µM and a GI50 [2] of 0.599 µM. For the same compound, the TGI [2] was > 100 µM, the GI50 [3] was 0.061 µM and the TGI [3] was 32.6 µM. It also gave a GI50 [4] of 0.102 µM, a TGI [4] of 46 µM and a GI50 [5] of 20.9 µM. It also gave a TGI [5] of 58.7 µM, a GI50 [6] of 0.143 µM and a TGI [6] of 58.4 µM. The GI50 [7] was 0.298 µM, the TGI [7] was > 73.9 µM and the GI50 [10] was 1.04 µM. For the same compound, the TGI [10] was 28.1 µM, the GI50 [8] was 0.4 µM and the TGI [8] was 35.5 µM. For the same compound, the GI50 [9] was 0.0473 µM and the TGI [9] was 14.2 µM.

For Cc1nc(C(N)=S)sc1C(=O)C/C(=N/N)C(=O)Nc1cccc(Cl)c1C, the TGI [1] was > 100 µM, the TGI [2] was > 100 µM and the TGI [3] was > 100 µM. The TGI [4] was > 100 µM, the TGI [5] was > 100 µM and the TGI [6] was > 100 µM. For the same compound, the TGI [7] was > 100 µM, the TGI [10] was > 100 µM and the TGI [8] was > 100 µM. The TGI [9] was > 100 µM.

In the case of COc1ccc(CN2c3ccccc3CCc3ccccc32)cc1F, the GI50 [1] is reported as 0.804 µM, the TGI [1] is reported as > 100 µM and the GI50 [2] is reported as 0.672 µM. For the same compound, the TGI [2] was > 100 µM, the GI50 [3] was 0.352 µM and the TGI [3] was > 100 µM. For the same compound, the GI50 [4] was 0.732 µM, the TGI [4] was > 100 µM and the GI50 [6] was 0.549 µM. For the same compound, the TGI [6] was > 100 µM, the GI50 [7] was 0.515 µM and the TGI [7] was > 100 µM. For the same compound, the GI50 [10] was 0.587 µM, the TGI [10] was 48 µM and the GI50 [8] was 0.471 µM. The TGI [8] was > 100 µM, the GI50 [9] was 0.463 µM and the TGI [9] was > 100 µM.

COc1cc2nc(-c3ccc(C(F)(F)F)cc3)cc(OCCCN3CCCCC3)c2cc1OC was tested, and the GI50 [1] was 1.82 µM, the TGI [1] was 6.29 µM and the GI50 [2] was 1.91 µM. The TGI [2] was 11.1 µM, the GI50 [3] was 1.16 µM and the TGI [3] was 4.39 µM. It also gave a GI50 [4] of 0.722 µM, a TGI [4] of 19.4 µM and a GI50 [5] of 1.26 µM. It also gave a TGI [5] of 4.03 µM, a GI50 [6] of 0.272 µM and a TGI [6] of 5.05 µM. It also gave a GI50 [7] of 1.83 µM, a TGI [7] of 10.6 µM and a GI50 [10] of 0.678 µM. The TGI [10] was 7.08 µM, the GI50 [8] was 2.3 µM and the TGI [8] was 23.3 µM. The GI50 [9] was 0.193 µM and the TGI [9] was 3.62 µM.

Fc1cccc(Cl)c1/C=N\N=C1c2ccccc2-c2ccccc21 was tested, and the TGI [1] was > 100 µM, the TGI [2] was > 100 µM and the TGI [3] was > 100 µM. For the same compound, the TGI [4] was > 100 µM, the TGI [5] was > 100 µM and the TGI [6] was > 100 µM. For the same compound, the TGI [7] was > 100 µM, the TGI [10] was > 100 µM and the TGI [8] was > 100 µM. The TGI [9] was > 100 µM.

For CCc1c(C)c(C#N)c(=S)n(C2OC(CO)C(O)C(O)C2O)c1C (stereo not given), the TGI [1] was > 100 µM, the TGI [2] was > 100 µM and the TGI [3] was > 100 µM. The TGI [4] was > 100 µM, the TGI [5] was > 100 µM and the TGI [7] was > 100 µM. The TGI [10] was > 100 µM, the TGI [8] was > 100 µM and the TGI [9] was > 100 µM.

With Cc1c2ccc(N(C)c3ccnc(Nc4cccc(S(N)(=O)=O)c4)n3)cc2nn1C the GI50 [1] was 8.38 µM, the TGI [1] was > 25 µM and the GI50 [2] was 7.49 µM. The TGI [2] was > 25 µM, the GI50 [3] was 8.95 µM and the TGI [3] was > 25 µM. The GI50 [4] was 11.9 µM, the TGI [4] was > 25 µM and the GI50 [5] was 5.74 µM. It also gave a TGI [5] of 20.2 µM, a GI50 [6] of 7.73 µM and a TGI [6] of 24.7 µM. The GI50 [7] was 9.21 µM, the TGI [7] was > 25 µM and the GI50 [10] was 5.41 µM. It also gave a TGI [10] of 17.9 µM, a GI50 [8] of 7.03 µM and a TGI [8] of 20.6 µM.
